We go through 24 molecules from patent publication US12325697B2 (Nimbus Clio, Inc., priority 2021, dated 2025).

In experiment [1] the target is Recombinant human c-Cbl (aa 47-435) (Homo sapiens (Human), UniProt P22681). Description: c-Cbl Biochemical Assay (TR-FRET). The essentials: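 TR-FRET binding of UBE2D2-Ub-Bodipy (100 nM) to biotinylated c-Cbl (aa 47-435, 6 nM) via Streptavidin-Tb, measured after c-Cbl activation by Src-Zap70 with 0.5 mM ATP (60-90 min RT, 30 min compound preincubation). Ten-point half-log dilutions, 1% DMSO; IC50 by 4-parameter fit of normalized inhibition.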

Experiment [2] addresses Recombinant human Cbl-b (aa 36-427) (Homo sapiens (Human), UniProt Q13191). Description: Cbl-b Biochemical Assay (TR-FRET). Particulars: read-out: TR-FRET hCbl-b IC50. The procedure, abridged:
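IC50 from 4-parameter fit of % inhibition (DMSO max, reference-inhibitor min), duplicate ten-point series. Compound preincubated with 6 nM Cbl-b, then Src-Zap70 (1-2.5 nM)/0.5 mM ATP reaction 60 min RT; EDTA quench with labelled UBE2D2-Ub and streptavidin-terbium, 60 min, HTRF at 520 nm.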

SMILES strings stand for the structures.

Recombinant human c-Cbl (aa 47-435), sequence (P22681 47-435): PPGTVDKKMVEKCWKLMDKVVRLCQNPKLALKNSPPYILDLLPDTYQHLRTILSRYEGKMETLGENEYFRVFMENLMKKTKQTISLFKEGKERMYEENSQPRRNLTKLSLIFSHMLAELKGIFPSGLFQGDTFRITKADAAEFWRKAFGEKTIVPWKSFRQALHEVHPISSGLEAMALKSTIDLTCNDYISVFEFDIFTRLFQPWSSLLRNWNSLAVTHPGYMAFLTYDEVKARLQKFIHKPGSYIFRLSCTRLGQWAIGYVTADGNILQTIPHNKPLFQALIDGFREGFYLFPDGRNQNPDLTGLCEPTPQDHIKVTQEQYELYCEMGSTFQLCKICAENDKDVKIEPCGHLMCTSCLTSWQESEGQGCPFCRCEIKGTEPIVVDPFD
Recombinant human Cbl-b (aa 36-427), sequence (Q13191 36-427): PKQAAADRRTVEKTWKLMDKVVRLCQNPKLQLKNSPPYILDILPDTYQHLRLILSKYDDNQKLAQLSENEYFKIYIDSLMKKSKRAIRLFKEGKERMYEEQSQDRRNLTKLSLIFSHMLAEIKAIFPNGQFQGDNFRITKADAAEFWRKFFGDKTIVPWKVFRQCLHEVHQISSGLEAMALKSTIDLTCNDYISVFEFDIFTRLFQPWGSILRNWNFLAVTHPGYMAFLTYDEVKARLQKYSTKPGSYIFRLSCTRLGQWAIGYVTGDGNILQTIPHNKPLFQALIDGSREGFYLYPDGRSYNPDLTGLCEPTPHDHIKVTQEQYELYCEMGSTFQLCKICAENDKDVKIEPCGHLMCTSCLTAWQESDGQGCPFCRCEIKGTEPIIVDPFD

On to `CN(Cc1ccc2c(c1)C(=O)N(c1cc(-c3ccc(C#N)cc3-c3nncn3C)cc(C3CC3)n1)C2)CC1CC1` [AIX-2, 4-[2-Cyclopropyl-6-(6-{[(cyclopropylmethyl)(methyl)amino]methyl}-1-oxo-3H-isoindol-2-yl)pyridin-4-yl]-3-(4-methyl-1,2,4-triazol-3-yl)benzonitrile], for which the IC50 in experiment [1] and in experiment [2] was at most 200 nM throughout.

Take `CNCCOCc1ccc2c(c1)C(=O)N(c1cc(-c3ccc(C#N)cc3-c3nncn3C)cc(C3CC3)n1)C2` [AIY-2, 4-[2-Cyclopropyl-6-(6-{[2-(methylamino)ethoxy]methyl}-1-oxo-3H-isoindol-2-yl)pyridin-4-yl]-3-(4-methyl-1,2,4-triazol-3-yl)benzonitrile]: the half-inhibitory concentration (IC50) in experiment [1] and in experiment [2] was at most 200 nM throughout.

For the molecule `CN1CC[C@@H](NCc2ccc3c(c2)C(=O)N(c2cc(-c4ccc(C#N)cc4-c4nncn4C)cc(C4CC4)n2)C3)C1=O` [AIZ-2, 4-{2-Cyclopropyl-6-[6-({[(3R)-1-methyl-2-oxopyrrolidin-3-yl]amino}methyl)-1-oxo-3H-isoindol-2-yl]pyridin-4-yl}-3-(4-methyl-1,2,4-triazol-3-yl)benzonitrile], the IC50 in experiment [1] and in experiment [2] was at most 200 nM each time.

As for `CC[C@H](O)CNCc1ccc2c(c1)C(=O)N(c1cc(-c3ccc(C#N)cc3-c3nncn3C)cc(C3CC3)n1)C2` [AJA-2, (S)-4-(2-Cyclopropyl-6-(6-(((2-hydroxybutyl)amino)methyl)-1-oxoisoindolin-2-yl)pyridin-4-yl)-3-(4-methyl-4H-1,2,4-triazol-3-yl)benzonitrile], the half-maximal inhibitory concentration (IC50) in experiment [1] and in experiment [2] was at most 200 nM throughout.

On to `CCOc1cc(-c2ccc(F)cc2-c2nncn2C)cc(N2Cc3c(OC)cc(CO)cc3C2=O)n1` [AJC-1, 2-(6-Ethoxy-4-(4-fluoro-2-(4-methyl-4H-1,2,4-triazol-3-yl)phenyl)pyridin-2-yl)-6-(hydroxymethyl)-4-methoxyisoindolin-1-one], for which the concentration for half-maximal inhibition (IC50) in experiment [1] and in experiment [2] was at most 200 nM in each case.

On to `Cn1cnnc1-c1cc(C#N)ccc1-c1cccc(N2Cc3ccc(CO)cc3C2=O)c1` [AJD-2, 3′-(6-(Hydroxymethyl)-1-oxoisoindolin-2-yl)-2-(4-methyl-4H-1,2,4-triazol-3-yl)-[1,1′-biphenyl]-4-carbonitrile], for which the half-maximal inhibitory concentration (IC50) in experiment [1] and in experiment [2] was 1000 to 10000 nM in each case.

Turning to `Cn1cnnc1-c1cc(C#N)ccc1-c1cccc(N2Cc3ccc(CNCC4CC4)cc3C2=O)c1` [AJE-2, 3′-(6-(((Cyclopropylmethyl)amino)methyl)-1-oxoisoindolin-2-yl)-2-(4-methyl-4H-1,2,4-triazol-3-yl)-[1,1′-biphenyl]-4-carbonitrile], the IC50 in experiment [1] and in experiment [2] was at most 200 nM in each case.

On to `COCCNCc1ccc2c(c1)C(=O)N(c1cccc(-c3ccc(C#N)cc3-c3nncn3C)c1)C2` [AJF-1, 3′-(6-(((2-Methoxyethyl)amino)methyl)-1-oxoisoindolin-2-yl)-2-(4-methyl-4H-1,2,4-triazol-3-yl)-[1,1′-biphenyl]-4-carbonitrile], for which the IC50 in experiment [1] and in experiment [2] was at most 200 nM each time.

Take `COCC1(NCc2ccc3c(c2)C(=O)N(c2cc(-c4ccc(C#N)cc4-c4nncn4C)cc(C4CC4)n2)C3)CCC1` [AJG-2, 4-(2-cyclopropyl-6-(6-(((1-(methoxymethyl)cyclobutyl)amino)methyl)-1-oxoisoindolin-2-yl)pyridin-4-yl)-3-(4-methyl-4H-1,2,4-triazol-3-yl)benzonitrile]: the IC50 in experiment [1] and in experiment [2] was at most 200 nM throughout.

In the case of `CC(=O)c1ccc2c(c1)C(=O)N(c1cc(-c3ccc(C#N)cc3-c3nncn3C)cc(C3CC3)n1)C2` [AJH-3, 4-(2-(6-Acetyl-1-oxoisoindolin-2-yl)-6-cyclopropylpyridin-4-yl)-3-(4-methyl-4H-1,2,4-triazol-3-yl)benzonitrile], the IC50 in experiment [1] and in experiment [2] was at most 200 nM in each case.

As for `CC(NCC1CC1)c1ccc2c(c1)C(=O)N(c1cc(-c3ccc(C#N)cc3-c3nncn3C)cc(C3CC3)n1)C2` (stereo not drawn) [AJI-1, 4-(2-Cyclopropyl-6-(6-(1-((cyclopropylmethyl)amino)ethyl)-1-oxoisoindolin-2-yl)pyridin-4-yl)-3-(4-methyl-4H-1,2,4-triazol-3-yl)benzonitrile], the IC50 in experiment [1] and in experiment [2] was at most 200 nM throughout.

`C[C@@H](NCC1CC1)c1ccc2c(c1)C(=O)N(c1cc(-c3ccc(C#N)cc3-c3nncn3C)cc(C3CC3)n1)C2` [AJJ-1, (R)-4-(2-Cyclopropyl-6-(6-(1-((cyclopropylmethyl)amino)ethyl)-1-oxoisoindolin-2-yl)pyridin-4-yl)-3-(4-methyl-4H-1,2,4-triazol-3-yl)benzonitrile]: the half-inhibitory concentration (IC50) in experiment [1] and in experiment [2] was at most 200 nM each time.

Consider `C[C@H](NCC1CC1)c1ccc2c(c1)C(=O)N(c1cc(-c3ccc(C#N)cc3-c3nncn3C)cc(C3CC3)n1)C2` [AJK-1, (S)-4-(2-Cyclopropyl-6-(6-(1-((cyclopropylmethyl)amino)ethyl)-1-oxoisoindolin-2-yl)pyridin-4-yl)-3-(4-methyl-4H-1,2,4-triazol-3-yl)benzonitrile], for which the IC50 in experiment [1] and in experiment [2] was at most 200 nM each time.

As to `Cn1cnnc1-c1cc(C#N)ccc1-c1cc(C2CC2)nc(N2Cc3ccc(O)cc3C2=O)c1` [AJL-2, 4-(2-cyclopropyl-6-(6-hydroxy-1-oxoisoindolin-2-yl)pyridin-4-yl)-3-(4-methyl-4H-1,2,4-triazol-3-yl)benzonitrile], the half-maximal inhibitory concentration (IC50) in experiment [1] and in experiment [2] was at most 200 nM each time.

In the case of `Cn1cnnc1-c1cc(C#N)ccc1-c1cc(C2CC2)nc(N2Cc3ccc(OC[C@@H](O)CO)cc3C2=O)c1` [AJM-3, (S)-4-(2-Cyclopropyl-6-(6-(2,3-dihydroxypropoxy)-1-oxoisoindolin-2-yl)pyridin-4-yl)-3-(4-methyl-4H-1,2,4-triazol-3-yl)benzonitrile], the IC50 in experiment [1] and in experiment [2] was at most 200 nM throughout.

Turning to `Cn1cnnc1-c1cc(C#N)ccc1-c1cc(C2CC2)nc(N2Cc3ccc(OC[C@H](O)CO)cc3C2=O)c1` [AJN-3, (R)-4-(2-Cyclopropyl-6-(6-(2,3-dihydroxypropoxy)-1-oxoisoindolin-2-yl)pyridin-4-yl)-3-(4-methyl-4H-1,2,4-triazol-3-yl)benzonitrile], the IC50 in experiment [1] and in experiment [2] was at most 200 nM in each case.

With `CCOc1cc(-c2ccc(F)cc2-c2nncn2C)cc(N2Cc3c(OC)cc(CN(C)CC4(O)CCC4)cc3C2=O)n1` [AJO-2, 2-(6-Ethoxy-4-(4-fluoro-2-(4-methyl-4H-1,2,4-triazol-3-yl)phenyl)pyridin-2-yl)-6-((((1-hydroxycyclobutyl)methyl)(methyl)amino)methyl)-4-methoxyisoindolin-1-one], the IC50 in experiment [1] and in experiment [2] was at most 200 nM throughout.

As for `Cn1cnnc1-c1cc(C#N)ccc1-c1cc(C2CC2)cc(N2Cc3ccc(CO)cc3C2=O)c1` [AJP-7, 3′-Cyclopropyl-5′-(6-(hydroxymethyl)-1-oxoisoindolin-2-yl)-2-(4-methyl-4H-1,2,4-triazol-3-yl)-[1,1′-biphenyl]-4-carbonitrile], the concentration for half-maximal inhibition (IC50) fell in the range of 1000 to 10000 nM in experiment [1] and 200 to 1000 nM in experiment [2].

On to `COCCNCc1ccc2c(c1)C(=O)N(c1cc(-c3ccc(C#N)cc3-c3nncn3C)cc(C3CC3)c1)C2` [AJQ-2, 3′-Cyclopropyl-5′-(6-(((2-methoxyethyl)amino)methyl)-1-oxoisoindolin-2-yl)-2-(4-methyl-4H-1,2,4-triazol-3-yl)-[1,1′-biphenyl]-4-carbonitrile], for which the IC50 in experiment [1] and in experiment [2] was at most 200 nM in each case.

Regarding `Cn1cnnc1-c1cc(C#N)ccc1-c1cc(C2CC2)cc(N2Cc3ccc(CNCC4CC4)cc3C2=O)c1` [AJR-1, 3′-Cyclopropyl-5′-(6-{[(cyclopropylmethyl)amino]methyl}-1-oxo-3H-isoindol-2-yl)-2-(4-methyl-1,2,4-triazol-3-yl)-[1,1′-biphenyl]-4-carbonitrile], the concentration for half-maximal inhibition (IC50) in experiment [1] and in experiment [2] was at most 200 nM throughout.

As to `CN(Cc1ccc2c(c1)C(=O)N(c1cc(-c3ccc(F)cc3-c3nncn3C)cc(C3CC3)n1)C2)CC1(O)CCC1` [AJS-1, 2-(6-Cyclopropyl-4-(4-fluoro-2-(4-methyl-4H-1,2,4-triazol-3-yl)phenyl)pyridin-2-yl)-6-((((1-hydroxycyclobutyl)methyl) (methyl)amino)methyl)isoindolin-1-one], the IC50 in experiment [1] and in experiment [2] was at most 200 nM each time.

Turning to `CCOc1cc(-c2ccc(F)cc2-c2nncn2C)cc(N2Cc3ccc(CN(C)CC4(O)CCC4)cc3C2=O)n1` [AJT-1, 2-{6-Ethoxy-4-[4-fluoro-2-(4-methyl-1,2,4-triazol-3-yl)phenyl]pyridin-2-yl}-6-({[(1-hydroxycyclobutyl)methyl] (methyl)amino}methyl)-3H-isoindol-1-one], the half-maximal inhibitory concentration (IC50) in experiment [1] and in experiment [2] was at most 200 nM throughout.

As to `CNC[C@H](O)COc1ccc2c(c1)C(=O)N(c1cc(-c3ccc(C#N)cc3-c3nncn3C)cc(C3CC3)n1)C2` [AJU-3, 4-(2-Cyclopropyl-6-{6-[(2S)-2-hydroxy-3-(methylamino)propoxy]-1-oxo-3H-isoindol-2-yl}pyridin-4-yl)-3-(4-methyl-1,2,4-triazol-3-yl) benzonitrile], the IC50 in experiment [1] and in experiment [2] was at most 200 nM each time.

On to `CNC[C@@H](O)COc1ccc2c(c1)C(=O)N(c1cc(-c3ccc(C#N)cc3-c3nncn3C)cc(C3CC3)n1)C2` [AJV-3, 4-(2-Cyclopropyl-6-{6-[(2R)-2-hydroxy-3-(methylamino)propoxy]-1-oxo-3H-isoindol-2-yl}pyridin-4-yl)-3-(4-methyl-1,2,4-triazol-3-yl)benzonitrile], for which the IC50 in experiment [1] and in experiment [2] was at most 200 nM in each case.
